Source: patent US8637513B2, “Heterocycle phenyl amide T-type calcium channel antagonists” (Merck Sharp & Dohme Corp., priority 2007, dated 2014)

molecular target: T1, T-type channel alpha1I (CaV 3.3) (Homo sapiens, UniProt Q9P0X4); assay: FLIPR Ca2+ Flux Assay; format: cell-based; conditions: alpha1I subtype; read-out: FLIPR alpha1I IP
T1 construct: expressed in transfected cells; host or cells: HEK 293 cells, tetracycline-inducible expression
T1 sequence (Q9P0X4 whole entry): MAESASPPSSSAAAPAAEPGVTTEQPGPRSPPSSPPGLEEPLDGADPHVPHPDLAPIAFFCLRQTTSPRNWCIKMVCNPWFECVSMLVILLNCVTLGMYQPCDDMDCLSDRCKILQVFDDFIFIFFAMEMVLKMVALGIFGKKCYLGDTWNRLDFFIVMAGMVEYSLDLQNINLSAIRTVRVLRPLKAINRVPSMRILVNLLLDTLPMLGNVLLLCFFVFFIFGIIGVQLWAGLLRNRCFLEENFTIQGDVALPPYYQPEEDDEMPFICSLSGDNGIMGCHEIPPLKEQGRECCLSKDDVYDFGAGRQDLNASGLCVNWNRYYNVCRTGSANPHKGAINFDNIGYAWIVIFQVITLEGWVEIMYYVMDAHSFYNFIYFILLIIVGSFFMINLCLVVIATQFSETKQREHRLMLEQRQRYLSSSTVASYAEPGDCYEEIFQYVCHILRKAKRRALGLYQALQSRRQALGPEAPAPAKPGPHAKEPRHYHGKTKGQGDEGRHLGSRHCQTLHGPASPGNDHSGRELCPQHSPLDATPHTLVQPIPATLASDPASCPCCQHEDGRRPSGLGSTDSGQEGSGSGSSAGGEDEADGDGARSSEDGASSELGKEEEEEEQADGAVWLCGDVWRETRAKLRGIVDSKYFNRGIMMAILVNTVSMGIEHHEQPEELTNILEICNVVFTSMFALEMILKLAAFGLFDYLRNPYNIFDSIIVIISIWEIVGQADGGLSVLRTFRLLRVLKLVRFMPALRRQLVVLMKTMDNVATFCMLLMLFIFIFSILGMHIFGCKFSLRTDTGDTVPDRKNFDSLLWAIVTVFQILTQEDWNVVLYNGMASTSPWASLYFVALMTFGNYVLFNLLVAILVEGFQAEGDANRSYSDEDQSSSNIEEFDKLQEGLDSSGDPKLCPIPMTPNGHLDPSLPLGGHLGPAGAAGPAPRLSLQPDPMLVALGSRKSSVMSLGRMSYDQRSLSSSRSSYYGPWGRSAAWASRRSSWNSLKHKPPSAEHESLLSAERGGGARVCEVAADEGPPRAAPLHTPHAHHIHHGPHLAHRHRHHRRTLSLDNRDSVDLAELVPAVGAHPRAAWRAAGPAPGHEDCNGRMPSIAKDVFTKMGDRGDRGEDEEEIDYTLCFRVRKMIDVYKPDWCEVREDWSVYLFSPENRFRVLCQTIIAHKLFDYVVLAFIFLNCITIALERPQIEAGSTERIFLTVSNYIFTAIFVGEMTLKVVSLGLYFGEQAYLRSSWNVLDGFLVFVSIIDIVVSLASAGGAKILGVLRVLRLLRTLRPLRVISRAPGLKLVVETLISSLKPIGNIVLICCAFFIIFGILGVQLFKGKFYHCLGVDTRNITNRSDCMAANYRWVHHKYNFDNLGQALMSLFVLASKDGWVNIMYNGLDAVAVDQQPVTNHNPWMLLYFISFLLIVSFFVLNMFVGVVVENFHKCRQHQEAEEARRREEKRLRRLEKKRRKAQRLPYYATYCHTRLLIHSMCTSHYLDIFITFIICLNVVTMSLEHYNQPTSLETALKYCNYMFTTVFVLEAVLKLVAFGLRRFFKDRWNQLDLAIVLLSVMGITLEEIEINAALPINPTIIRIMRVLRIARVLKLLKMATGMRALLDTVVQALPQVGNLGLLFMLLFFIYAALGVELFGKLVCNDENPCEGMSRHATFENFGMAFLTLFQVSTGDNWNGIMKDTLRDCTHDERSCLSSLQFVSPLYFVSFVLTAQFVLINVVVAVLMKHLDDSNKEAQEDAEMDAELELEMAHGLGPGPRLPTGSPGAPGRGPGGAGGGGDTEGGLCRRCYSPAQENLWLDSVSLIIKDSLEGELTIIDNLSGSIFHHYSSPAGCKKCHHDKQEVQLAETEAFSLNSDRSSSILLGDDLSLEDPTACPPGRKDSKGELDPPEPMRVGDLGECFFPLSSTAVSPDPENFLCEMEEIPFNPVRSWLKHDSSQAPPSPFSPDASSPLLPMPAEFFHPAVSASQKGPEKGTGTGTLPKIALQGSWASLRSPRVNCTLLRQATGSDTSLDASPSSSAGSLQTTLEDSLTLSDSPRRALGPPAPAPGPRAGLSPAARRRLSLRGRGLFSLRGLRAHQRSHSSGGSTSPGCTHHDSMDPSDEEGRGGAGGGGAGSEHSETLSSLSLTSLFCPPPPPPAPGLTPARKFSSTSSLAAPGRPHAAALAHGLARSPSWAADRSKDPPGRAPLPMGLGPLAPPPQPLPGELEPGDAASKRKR

IC50 [nM]	SMILES
19	C[C@@H](NC(=O)Cc1ccc(-c2cccc3cncnc23)cc1)c1ccc(OCC(F)(F)F)cn1 [Example 1, 2-(4-Quinazolin-8-ylphenyl)-N-{(1R)-1-[5-(2,2,2-trifluoroethoxy)pyridin-2-yl]ethyl}acetamide]
24	Cc1nccnc1-c1ccc(CC(=O)N[C@H](C)c2ccc(OCC(F)(F)F)cn2)cc1 [Example 2, 2-[4-(3-methylpyrazin-2-yl)phenyl]-N-{(1R)-1-[5-(2,2,2-trifluoroethoxy)pyridin-2-yl]ethyl}acetamide]
36	C[C@@H](NC(=O)Cc1ccc(-c2cc3ccccc3n2C)cc1)c1ccc(OCC(F)(F)F)cn1 [Example 3, 2-[4-(1-Methyl-1H-indol-2-yl)phenyl]-N-{(1R)-1-[5-(2,2,2-trifluoroethoxy)pyridin-2-yl]ethyl}acetamide]
5	C[C@@H](NC(=O)Cc1ccc(-c2cnn3ncccc23)cc1)c1ccc(OCC(F)(F)F)cn1 [Example 4, 2-(4-Pyrazolo[1,5-b]pyridazin-3-ylphenyl)-N-{(1R)-1-[5-(2,2,2-trifluoroethoxy)pyridin-2-yl]ethyl}acetamide]
30	C[C@@H](NC(=O)Cc1ccc(-c2cnccn2)cc1)c1ccc(OCC(F)(F)F)cn1 [Example 5, 2-(4-Pyrazin-2-ylphenyl)-N-{(1R)-1-[5-(2,2,2-trifluoroethoxy)pyridin-2-yl]ethyl}acetamide]
47	C[C@@H](NC(=O)Cc1ccc(-c2nccnc2C2CC2)cc1)c1ccc(OCC(F)(F)F)cn1 [Example 6, 2-[4-(3-Cyclopropylpyrazin-2-yl)phenyl]-N-{(1R)-1-[5-(2,2,2-trifluoroethoxy)pyridin-2-yl]ethyl}acetamide]
41	CC1=NOC(C)(c2ccc(CC(=O)N[C@H](C)c3ccc(OCC(F)(F)F)cn3)cc2)C1 (stereo partly drawn) [Example 7, 2-[4-(3,5-Dimethyl-4,5-dihydro-isoxazol-5-yl)phenyl]-N-{(1R)-1-[5-(2,2,2-trifluoroethoxy)pyridin-2-yl]ethyl}acetamide]
91	C[C@@H](NC(=O)Cc1ccc(OC2CCOC2)cc1)c1ccc(OCC(F)(F)F)cn1 (stereo partly shown) [Example 8]
46	C[C@@H](NC(=O)Cc1ccc(Oc2nccs2)cc1)c1ccc(OCC(F)(F)F)cn1 [Example 9]
73	C[C@@H](NC(=O)Cc1ccc(-n2nc(C3CC3)c3ccccc32)cc1)c1ccc(OCC(F)(F)F)cn1 [Example 10]
